Measurements as given in patent EP0874631B1, “USE OF VALACICLOVIR FOR THE MANUFACTURE OF A MEDICAMENT FOR THE TREATMENT OF GENITAL HERPES BY A SINGLE DAILY APPLICATION” (priority 1996, dated 1997).
Structures can show the parent of a compound that is named as a salt. Where two headings read alike, the source gives them in different places.

Key:
Type in all cases: in vivo, human
recurrent genital herpes = assay: open-label 1-year study of suppressive therapy in patients previously on chronic acyclovir suppression
Method: OBJECTIVE: To document the number of genital herpes outbreaks during a 1-year period of suppressive therapy with valaciclovir hydrochloride in patients previously receiving chronic suppressive therapy with acyclovir. METHODS: A total of 127 patients (81 Males, 46 Females) from 11 study sites enrolled in this open-label study. […] Upon discontinuation of acyclovir, patients received 500 mg valaciclovir hydrochloride once daily. For any genital herpes recurrence, patients self-initiated treatment with valaciclovir hydrochloride 500 mg twice daily for 5 days, then resumed once daily therapy. Patients documented recurrences in a diary and returned to the clinic every three months for drug safety and recurrence evaluation.

[1] = tested on: genital herpes simplex virus (HSV) infection; settings: for recurrences experienced by placebo patients prevented or delayed / recurrences prevented or delayed: 52 weeks; for safety profiles (valaciclovir, aciclovir and placebo compared): in vivo
Text: Objective: To determine the efficacy and safety of 4 doses of oral valaciclovir compared with aciclovir and placebo for the suppression of genital herpes in otherwise healthy patients.
Methods: This study was a multi-centre, international, six-arm, parallel group, randomised, double-blind comparison of the efficacy and safety of 4 doses of oral valaciclovir with oral aciclovir and placebo for the suppression of recurrent episodes of genital herpes simplex virus (HSV) infection in immunocompetent patients. A total of 1279 patients with a history of recurrent genital herpes were randomised into one of 6 treatment arms with a 2:2:2:2:2:1 treatment allocation and followed for 52 weeks. Patients visited the clinic at monthly intervals and on Days 1 and 5 of a genital HSV recurrence. Safety was assessed by adverse experience reporting at each visit and by clinical chemistry and haematology testing every 3 or 6 months respectively.
274 patients received 250 mg twice daily valaciclovir (reference example); 269 patients received 1000 mg once daily valaciclovir; 266 patients received 500 mg once daily valaciclovir; 269 patients received 250 mg once daily valaciclovir; 267 patients received 400 mg twice daily aciclovir; and 134 patients received placebo.

[2] = tested on: frequently recurrent genital herpes; assay: double blind, placebo controlled multicentre clinical trial of once daily suppressive therapy; settings: 500 mg once daily
Method: In another study once daily valaciclovir (as the hydrochloride salt), was evaluated as suppressive therapy in a double blind, placebo controlled multicentre clinical trial in otherwise healthy immunocompetent patients with frequently recurrent genital herpes. A total of 382 patients with a history of >8 genital herpes recurrences per year were randomised (3:1) to treatment with once daily valaciclovir (500 mg) or placebo for 16 weeks. Patients experiencing a recurrence discontinued double blind therapy and received open label episodic valaciclovir (500 mg twice daily) for 5 days. They then continued on open label daily valaciclovir, as did those completing the 16 week double blind phase of study without evidence of a breakthrough recurrence, for a total of 48 weeks. Patients were assessed 4-weekly (double blind phase) and every 8 weeks thereafter. The primary efficacy end-point was time to first genital herpes recurrence.

[3] = 400 mg twice daily, entire tenth study year of acyclovir suppression
[4] = 250 mg twice daily (reference example)

SMILES	total recurrence free rate (recurrent genital herpes; 500 mg once daily, after six months of suppressive therapy (93 of 126 patients))	patients remained free of recurrences (recurrent genital herpes; 500 mg once daily, after the first three months of suppressive therapy (102 of 126 patients))	patients remained free of recurrences (recurrent genital herpes; 500 mg once daily, following the next three months of suppressive therapy (101 of 119 patients))	tolerability (recurrent genital herpes; 500 mg once daily, for 6 months)	mean quarterly recurrence free rate (recurrent genital herpes; [3])	yearly recurrence free rate (recurrent genital herpes; [3])	patients recurrence-free after 12 months ([1]; 400 mg twice daily)	recurrences experienced by placebo patients prevented or delayed ([1]; 400 mg twice daily)	safety profiles (valaciclovir, aciclovir and placebo compared) [1]	reduction in recurrence rate relative to placebo ([2]; 16 weeks, intent-to-treat population)	tolerability ([2]; adverse events infrequent and generally mild)	patients remained recurrence-free during the study period ([1]; 250 mg once daily, 12 months)	recurrences prevented or delayed ([1]; 250 mg once daily)	patients recurrence-free after 12 months [1, 4]	recurrences experienced by placebo patients prevented or delayed [1, 4]	patients recurrence-free at 12 months ([1]; 500 mg once daily)	recurrences prevented or delayed ([1]; 500 mg once daily)	patients recurrence-free after 12 months ([1]; 1000 mg once daily)	recurrences experienced by placebo patients prevented or delayed ([1]; 1000 mg once daily)
CC(C)[C@H](N)C(=O)OCCOCn1cnc2c(=O)[nH]c(N)nc21 [valaciclovir hydrochloride, 2-[(2-amino-1,6-dihydro-6-oxo-9H-purin-9-yl)methoxy]ethyl-L-valinate hydrochloride]	74%	81%	85%	well tolerated	–	–	–	–	–	–	–	–	–	–	–	–	–	–	–
Nc1nc2c(ncn2COCCO)c(=O)[nH]1 [acyclovir, 9-[(2-hydroxyethoxy)methyl]guanine, reference compound]	–	–	–	–	89%	75%	approximately half	78-79%	similar	–	–	–	–	–	–	–	–	–	–
CC(C)[C@H](N)C(=O)OCCOCn1cnc2c(=O)[nH]c(N)nc21 [valaciclovir, 2-[(2-amino-1,6-dihydro-6-oxo-9H-purin-9-yl)methoxy]ethyl L-valinate]	–	–	–	–	–	–	–	–	similar	85%	well tolerated	22%	54%	approximately half	78-79%	Forty	71%	approximately half	78-79%
